Laboratory results reported in patent publication US11370784B2 (MISSION THERAPEUTICS LIMITED, priority 2016, dated 2022).

target: USP30 (Homo sapiens (Human), UniProt Q70CQ3); assay: USP30 biochemical IC50 assay; details: fluorescence polarisation, TAMRA labelled peptide linked to ubiquitin as substrate; enzyme and compound incubated 30 min at room temp; read-out: IC50 range
Description: Reactions were performed in duplicate in black 384 well plates (small volume, Greiner 784076) in a final reaction volume of 21 μl. Either 1 μl of 50% DMSO or diluted compound was added to the plate. USP30 was diluted in reaction buffer (40 mM Tris, pH 7.5, 0.005% Tween 20, 0.5 mg/ml BSA, 5 mM beta-mercaptoethanol) to the equivalent of 0.05 μl/well and 10 μl of diluted USP30 was added to the compound. Enzyme and compound were incubated for 30 min at room temp. Reactions were initiated by the addition of 50 nM of TAMRA labelled peptide linked to ubiquitin via an iso-peptide bond as fluorescence polarisation substrate. Reactions were read immediately after addition of substrate and following a 2 h incubation at room temperature. Readings were performed on a Pherastar Plus (BMG Labtech). λ Excitation 540 nm; λ Emission 590 nm.

USP30, sequence (Q70CQ3 57-517): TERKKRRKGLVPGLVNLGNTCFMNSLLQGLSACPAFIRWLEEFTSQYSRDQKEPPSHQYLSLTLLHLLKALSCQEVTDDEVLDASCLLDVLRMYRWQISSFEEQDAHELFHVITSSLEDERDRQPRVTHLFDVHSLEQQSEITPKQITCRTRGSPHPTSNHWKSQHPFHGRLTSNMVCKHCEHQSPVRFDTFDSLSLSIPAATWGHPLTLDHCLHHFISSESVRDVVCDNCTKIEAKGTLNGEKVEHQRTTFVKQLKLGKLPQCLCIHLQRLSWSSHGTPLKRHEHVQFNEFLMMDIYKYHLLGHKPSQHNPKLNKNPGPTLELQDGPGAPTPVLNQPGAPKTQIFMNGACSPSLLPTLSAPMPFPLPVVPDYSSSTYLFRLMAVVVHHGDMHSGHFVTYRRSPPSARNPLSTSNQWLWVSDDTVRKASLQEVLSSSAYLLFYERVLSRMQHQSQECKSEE

Question: For N#CN1CCO[C@@H](C(=O)Nc2cc(-c3cccc(C(N)=O)c3)ncn2)C1 [Example 27, (R)-N-(6-(3-Carbamoylphenyl)-pyrimidin-4-yl)-4-cyanomorpholine-2-carboxamide], which IC50 is on record?
Answer: The IC50 was 1000 to 10000 nM.

Question: For N#Cc1cccc(-c2cc(NC(=O)C3(F)CCCN(C#N)C3)no2)c1 (stereo not drawn) [Example 64, 1-Cyano-N-(5-(3-cyanophenyl)isoxazol-3-yl)-3-fluoropiperidine-3-carboxamide], which IC50 is on record?
Answer: The IC50 was 100 to 1000 nM.

Question: With N#CN1CCO[C@@H](C(=O)Nc2cc(-c3cccc4[nH]ncc34)ncn2)C1 [Example 30, (R)-N-(6-(1H-indazol-4-yl)pyrimidin-4-yl)-4-cyanomorpholine-2-carboxamide] as the compound, how does the IC50 read?
Answer: The IC50 was 1000 to 10000 nM.

Question: With N#Cc1cccc(-n2cnc(NC(=O)[C@@]3(F)CCCN(C#N)C3)n2)c1 [Example 83, (R)-1-Cyano-N-(1-(3-cyanophenyl)-1H-1,2,4-triazol-3-yl)-3-fluoropiperidine-3-carboxamide] as the compound, how does the IC50 read?
Answer: The IC50 was 100 to 1000 nM.

Question: For N#Cc1cc(-c2ccnc(NC(=O)C3CN(C#N)CCO3)c2)ccn1 (stereo not drawn) [Example 18, 4-Cyano-N-(2′-cyano-[4,4′-bipyridin]-2-yl)morpholine-2-carboxamide], which IC50 is on record?
Answer: Its IC50 is 100 to 1000 nM.

Question: N#Cc1cc(F)cc(-c2cc(NC(=O)[C@H]3CN(C#N)CCO3)ncn2)c1 [Example 24, (R)-4-Cyano-N-(6-(3-cyano-5-fluoro-phenyl)pyrimidin-4-yl)morpholine-2-carboxamide] was tested. Which IC50 did it give?
Answer: Its IC50 is 100 to 1000 nM.

Question: For N#CN1CCC[C@](F)(C(=O)Nc2cnc(-c3cccc4[nH]ncc34)cn2)C1 [Example 87, (R)—N-(5-(1H-Indazol-4-yl)pyrazin-2-yl)-1-cyano-3-fluoropiperidine-3-carboxamide], which IC50 is on record?
Answer: Its IC50 is less than 100 nM.

Question: With COc1cccc(-c2cc(NC(=O)[C@H]3CN(C#N)CCO3)ncn2)c1 [Example 22, (R)-4-Cyano-N-(6-(3-methoxy-phenyl)pyrimidin-4-yl)morpholine-2-carboxamide] as the compound, how does the IC50 read?
Answer: The IC50 was 1000 to 10000 nM.

Question: CCCOc1cc(NC(=O)C2CN(C#N)CCO2)ccc1-c1ccn[nH]1 (stereo not drawn) [Example 3, 4-Cyano-N-(3-propoxy-4-(1H-pyrazol-5-yl)phenyl)morpholine-2-carboxamide] was tested. Which IC50 did it give?
Answer: The IC50 was 100 to 1000 nM.

Question: For CS(=O)(=O)N1CCN(C#N)CC1C(=O)Nc1ncc(-c2ccccc2)s1 (stereo not drawn) [Example 71, 4-Cyano-1-(methylsulfonyl)-N-(5-phenylthiazol-2-yl)piperazine-2-carboxamide], which IC50 is on record?
Answer: The IC50 was 1000 to 10000 nM.

Question: N#CN1CCC[C@](F)(C(=O)Nc2cnc(-c3cccc4cn[nH]c34)cn2)C1 [Example 86, (R)—N-(5-(1H-Indazol-7-yl)pyrazin-2-yl)-1-cyano-3-fluoropiperidine-3-carboxamide] was tested. Which IC50 did it give?
Answer: Its IC50 is less than 100 nM.

Question: Which IC50 does the source give for N#CN1CCO[C@@H](C(=O)Nc2cnc(-c3ccccc3)s2)C1 [Example 28, (R)-4-Cyano-N-(2-phenylthiazol-5-yl)morpholine-2-carboxamide] here?
Answer: The IC50 was 1000 to 10000 nM.

Question: With N#CN1CCO[C@@H](C(=O)Nc2cc(-c3cccc(Cl)c3)cnn2)C1 [Example 62, (R)—N-(5-(3-Chlorophenyl)pyridazin-3-yl)-4-cyanomorpholine-2-carboxamide] as the compound, how does the IC50 read?
Answer: Its IC50 is 100 to 1000 nM.

Question: For N#CN1CCO[C@H](C(=O)Nc2ncc(-c3ccccc3)s2)C1 [Example 33, (S)-4-Cyano-N-(5-phenylthiazol-2-yl)morpholine-2-carboxamide], which IC50 is on record?
Answer: The IC50 was 1000 to 10000 nM.

Question: How did the IC50 turn out when N#Cc1cccc(-c2ccnc(NC(=O)C3(F)CCCN(C#N)C3)c2)c1 (racemic) [Example 47, 1-Cyano-N-(4-(3-cyanophenyl)pyridin-2-yl)-3-fluoropiperidine-3-carboxamide] was run?
Answer: The IC50 was 1000 to 10000 nM.

Question: For N#CN1CCOC(C(=O)Nc2cc(-c3ccccc3)on2)C1 (stereo not drawn) [Example 13, 4-Cyano-N-(5-phenylisoxazol-3-yl)morpholine-2-carboxamide], which IC50 is on record?
Answer: The IC50 was 1000 to 10000 nM.

Question: With N#Cc1cccc(-c2ccnc(NC(=O)[C@H]3CN(C#N)CCO3)c2)c1 [Example 53, (R)-4-Cyano-N-(4-(3-cyanophenyl)pyridin-2-yl)morpholine-2-carboxamide] as the compound, how does the IC50 read?
Answer: Its IC50 is less than 100 nM.

Question: For CCCOc1cc(NC(=O)C2CCCN(C#N)C2)ccc1-c1ccn[nH]1 (stereo not drawn) [Example 36, 1-Cyano-N-(3-propoxy-4-(1H-pyrazol-5-yl)phenyl)piperidine-3-carboxamide], which IC50 is on record?
Answer: Its IC50 is 100 to 1000 nM.

Question: N#Cc1cccc(-n2cnc(NC(=O)[C@@]3(F)CCCN(C#N)C3)c2)c1 [Example 79, (R)-1-Cyano-N-(1-(3-cyanophenyl)-1H-imidazol-4-yl)-3-fluoropiperidine-3-carboxamide] was tested. Which IC50 did it give?
Answer: Its IC50 is 100 to 1000 nM.

Question: N#CN1CCO[C@@H](C(=O)Nc2cc(-c3cccc(Cl)c3)ncn2)C1 [Example 21, (R)-N-(6-(3-Chlorophenyl)-pyrimidin-4-yl)-4-cyanomorpholine-2-carboxamide] was tested. Which IC50 did it give?
Answer: Its IC50 is 100 to 1000 nM.

Question: Which IC50 does the source give for N#CN1CCC[C@](F)(C(=O)Nc2ccc(-c3cccc4[nH]ncc34)nn2)C1 [Example 91, (R)—N-(6-(1H-Indazol-4-yl)pyridazin-3-yl)-1-cyano-3-fluoropiperidine-3-carboxamide] here?
Answer: The IC50 was less than 100 nM.

Question: How did the IC50 turn out when N#CN1CCC[C@](F)(C(=O)Nc2cn(-c3cccc(C(F)(F)F)c3)cn2)C1 (stereo in doubt) [Example 80, 1-Cyano-3-fluoro-N-(1-(3-(trifluoromethyl)phenyl)-1H-imidazol-4-yl)piperidine-3-carboxamide] was run?
Answer: The IC50 was 100 to 1000 nM.

Question: For N#CN1CCC[C@](F)(C(=O)Nc2ccc(-c3cccc4[nH]ncc34)cn2)C1 [Example 85, (R)—N-(5-(1H-Indazol-4-yl)pyridin-2-yl)-1-cyano-3-fluoropiperidine-3-carboxamide], which IC50 is on record?
Answer: Its IC50 is less than 100 nM.

Question: Which IC50 does the source give for N#CN1CCCC(F)(C(=O)Nc2cc(-c3ccccc3)on2)C1 (stereo not drawn) [Example 45, 1-Cyano-3-fluoro-N-(5-phenylisoxazol-3-yl)piperidine-3-carboxamide] here?
Answer: Its IC50 is 100 to 1000 nM.

Question: N#CN1CCO[C@@H](C(=O)Nc2cc(-c3ccc(Cl)cc3)ncn2)C1 [Example 26, (R)-N-(6-(4-Chlorophenyl)-pyrimidin-4-yl)-4-cyanomorpholine-2-carboxamide] was tested. Which IC50 did it give?
Answer: The IC50 was 100 to 1000 nM.

Question: With N#CN1CCC[C@](F)(C(=O)Nc2ccc(-c3cccc4cn[nH]c34)cn2)C1 [Example 84, (R)—N-(5-(1H-Indazol-7-yl)pyridin-2-yl)-1-cyano-3-fluoropiperidine-3-carboxamide] as the compound, how does the IC50 read?
Answer: The IC50 was less than 100 nM.

Question: How did the IC50 turn out when COc1cccc(-c2cc(NC(=O)C3CN(C#N)CCO3)on2)c1 (stereo not drawn) [Example 10, 4-Cyano-N-(3-(3-methoxyphe-nyl)isoxazol-5-yl)morpholine-2-carboxamide] was run?
Answer: Its IC50 is 1000 to 10000 nM.

Question: Which IC50 does the source give for N#CN1CCCC(F)(C(=O)Nc2cn(-c3ccccc3)cn2)C1 (stereo not drawn) [Example 43, 1-Cyano-3-fluoro-N-(1-phenyl-1H-imidazol-4-yl)piperidine-3-carboxamide] here?
Answer: Its IC50 is 100 to 1000 nM.

Question: How did the IC50 turn out when N#CN1CCO[C@@H](C(=O)Nc2cc(-c3cccc(C(F)(F)F)c3)no2)C1 [Example 51, (R)-4-Cyano-N-(3-(3-(trifluoromethyl)phenyl)isoxazol-5-yl)morpholine-2-carboxamide] was run?
Answer: The IC50 was 100 to 1000 nM.

Question: Which IC50 does the source give for N#Cc1ccc(-c2cc(NC(=O)[C@H]3CN(C#N)CCO3)ncn2)cc1 [Example 25, (R)-4-Cyano-N-(6-(4-cyanophenyl)pyrimidin-4-yl)morpholine-2-carboxamide] here?
Answer: The IC50 was 1000 to 10000 nM.

Question: With N#CN1CCCC(C(=O)Nc2cc(-c3ccccc3)ccn2)C1 (stereo not drawn) [Example 40, 1-Cyano-N-(4-phenylpyridin-2-yl)piperidine-3-carboxamide] as the compound, how does the IC50 read?
Answer: Its IC50 is 1000 to 10000 nM.

Question: N#CN1CCC[C@](F)(C(=O)Nc2cc(-c3cccc(Cl)c3)on2)C1 [Example 74, (R)—N-(5-(3-Chlorophenyl)isoxazol-3-yl)-1-cyano-3-fluoropiperidine-3-carboxamide] was tested. Which IC50 did it give?
Answer: The IC50 was less than 100 nM.

Question: N#CN1CC(C(=O)Nc2nc3ccc(-c4cn[nH]c4)cc3s2)CC(F)(F)C1 (stereo not drawn) [Example 59, N-(6-(1H-Pyrazol-4-yl)benzo[d]thiazol-2-yl)-1-cyano-5,5-difluoropiperidine-3-carboxamide] was tested. Which IC50 did it give?
Answer: The IC50 was 1000 to 10000 nM.

Question: Which IC50 does the source give for N#CN1CCC[C@](F)(C(=O)Nc2ccc(-c3nccc4cn[nH]c34)cn2)C1 [Example 89, (R)—N-(5-(1H-Pyrazolo[3,4-c]pyridin-7-yl)pyridin-2-yl)-1-cyano-3-fluoropiperidine-3-carboxamide] here?
Answer: Its IC50 is less than 100 nM.

Question: For N#CN1CCCC(F)(C(=O)Nc2ncc(-c3ccccc3)s2)C1 (stereo not drawn) [Example 42, 1-Cyano-3-fluoro-N-(5-phenylthiazol-2-yl)piperidine-3-carboxamide], which IC50 is on record?
Answer: Its IC50 is 100 to 1000 nM.

Question: N#Cc1ccnc(-c2ccnc(NC(=O)C3CN(C#N)CCO3)c2)c1 (stereo not drawn) [Example 14, 4-Cyano-N-(4-cyano-[2,4′-bipyridin]-2′-yl)morpholine-2-carboxamide] was tested. Which IC50 did it give?
Answer: The IC50 was 1000 to 10000 nM.

Question: N#Cc1cccc(-c2cc(NC(=O)[C@H]3CN(C#N)CCO3)ncn2)c1 [Example 4, (R)-4-Cyano-N-(6-(3-cyanophenyl)pyrimidin-4-yl)morpholine-2-carboxamide] was tested. Which IC50 did it give?
Answer: Its IC50 is less than 100 nM.

Question: N#CN1CCC[C@](F)(C(=O)Nc2ncc(-c3cccc4cn[nH]c34)cn2)C1 [Example 92, (R)—N-(5-(1H-Indazol-7-yl)pyrimidin-2-yl)-1-cyano-3-fluoropiperidine-3-carboxamide] was tested. Which IC50 did it give?
Answer: The IC50 was less than 100 nM.

Question: Which IC50 does the source give for N#CN1CCOC(C(=O)Nc2cc(-c3cccc(C(F)(F)F)c3)no2)C1 (racemic) [Example 19, 4-Cyano-N-(3-(3-(trifluoro-methyl)phenyl)isoxazol-5-yl)morpholine-2-carboxamide] here?
Answer: Its IC50 is 100 to 1000 nM.

Question: Which IC50 does the source give for CN1CCN(C#N)C[C@@H]1C(=O)Nc1ncc(-c2ccccc2)s1 [Example 68] here?
Answer: Its IC50 is 1000 to 10000 nM.

Question: Which IC50 does the source give for N#Cc1cccc(-c2ccnc(NC(=O)[C@H]3CCCN(C#N)C3)c2)c1 [Example 57, (S)-1-Cyano-N-(4-(3-cyanophenyl)pyridin-2-yl)piperidine-3-carboxamide] here?
Answer: Its IC50 is 1000 to 10000 nM.

Question: How did the IC50 turn out when N#CN1CCOC(C(=O)Nc2ccc(-c3ccccc3)cn2)C1 (stereo not drawn) [Example 12, 4-Cyano-N-(5-phenylpyridin-2-yl)morpholine-2-carboxamide] was run?
Answer: The IC50 was 1000 to 10000 nM.
